Like-named read-outs stand apart in the source and are kept apart here. Blank lines part the entries; values can stand above or below the compound they belong to.
Key:
[1] = Solubility in water / physical properties; format: physicochemical
[2] = test system: avidin; conditions: for Percent Ester Remaining: room temperature
[3] = test system: Horseradish Peroxidase (HRP); conditions: over a 30 minute period; pH 7.0
[4] = Hydrolysis of ester by sodium hydroxide; format: physicochemical; conditions: 4.8 N sodium hydroxide added, pH 7.0 phosphate buffer aliquot
Protocol: (§1) About 0.5 mg of the purified mal-sac HNSA ester from Example 1A was dissolved in 1 ml of distilled water.

[5] = Stability in water; format: physicochemical; conditions: no nucleophiles added
[6] = Storage stability; format: physicochemical; conditions: purified ester, stored desiccated
[7] = test system: biotinylated polylysine; conditions: over a 30 minute period; pH 7.4
[8] = test system: streptavidin; set-up: species or system Streptomyces avidinii
Protocol: A total of 0.26 mg (4.3×10^-3 μmoles) of streptavidin purified from Streptomyces avidinii by the method of Hoffman et al., PNAS, 77, 4666-4668 (1980) was dissolved in 1.0 ml of phosphate buffered saline at pH 7.4 to yield a total amine concentration of 6.93×10^-5 M (16 NH2 /streptavidin). […] Good separation was achieved between the protein and the excess HNSA and unreacted HNSA ester. […] In this case […] of the amino groups on streptavidin (12.9 out of 16.0) reacted.

[9] = test system: bovine serum albumin (BSA); conditions: for Percent Ester Remaining in Solution: pH 7.5, room temperature
Protocol: as §1
The difference between the post-base and initial free HNSA concentration represents the concentration of ester. From the actual concentration of ester the amount of ester to be added to the protein solution to achieve the desired degree of substitution can be calculated.
A total of 22 mg ([…]) of BSA (of molecular weight 66,296) was dissolved in 2.0 ml of 0.01 M phosphate buffer at pH 7.5 to yield a total amino concentration of 1.0×10^-2 moles per liter (assuming 59 lysines/BSA molecule). […] The reaction was carried out at room temperature. […]

[10] = test system: sheep red blood cells (SRBC); test: Labelling of sheep red blood cells, cytofluorometry; format: cell-based; conditions: excitation at 360 nm
Protocol: Dansyl-sac-HNSA ester was prepared as described in Example 1A using molar equivalents of HNSA, dicyclohexylcarbodiimide and dansyl-ε-aminocaproic acid (from Sigma Chemicals). For use in coupling to sheep red blood cells (SRBC) the dansyl-sac-HNSA ester (50 mg) was prepared in 7 ml of 0.28 M cacodylate buffer, pH 6.9.
Sheep red blood cells were washed 4 times (400×g, 8 minutes) in G-PBS buffer (5% α-D-glucose w/v in PBSCa-Mg). To 1 ml of packed red blood cells was added the 7 ml of dansyl-sac-HNSA ester dropwise with gentle mixing for 10 minutes at room temperature. The reaction was done in foil-wrapped glassware to protect against photodecomposition. Following the reaction the cells were washed in cold G-PBS buffer containing 1% heat inactivated (56° C., 30 minutes) FCS (fetal calf serum) until the supernatants were colorless (a minimum of 4 washes).
The dansyl-sac-HNSA labelled SRBC were monitored using a Coulter EPICS V Cytofluorometer immediately after labeling and at 24 hours. […] This translates to an increase in intensity 720 times over unlabeled cells.

[11] = test system: cells; conditions: reacted with fluoresceinated avidin; compared with biotin-p-nitrophenyl ester; cited from earlier work
[12] = test system: polylysine
[13] = pH 7.4; cited from earlier work
[14] = test system: bovine serum albumin; conditions: pH 8.5; compared with same ester of N-hydroxysuccinimide; cited from earlier work
[15] = prior-art agents; cited from earlier work

Compound: O=C(CCCCCN1C(=O)C=CC1=O)Oc1ccc(S(=O)(=O)O)cc1[N+](=O)[O-] [mal-sac-HNSA, N-maleimido-6-aminocaproyl-HNSA]
- solubility in water [1]: dissolve fully in water
- Percent Ester Remaining ([2]; 0 minutes): 89%
- Percent Ester Remaining ([2]; 5 minutes): 86%
- Percent Ester Remaining ([2]; 20 minutes): 78%
- amino groups of avidin reacted ([2]; 30 minutes, 27 amino groups per avidin molecule): 13.5 amino groups
- Percent Ester Remaining ([2]; 30 minutes): 73%
- reaction rate ([2]; FIG. 3): linear
- reaction rate [3]: essentially linear
- hydrolysis by hydroxide [4]: rapidly hydrolyzed
- stability in water [5]: stable in water for several hours
- storage stability [6]: stable for extended periods
- reaction rate [7]: essentially linear
- amino groups on streptavidin reacted ([8]; 20 minutes): 79%
- number of amino groups on streptavidin reacted ([8]; 20 minutes, out of 16.0): 12.9
- reaction rate ([8]; over the period measured, pH 7.4): essentially linear
- Concentration of Ester ([9]; 0 minutes): 0.000156 mol/L
- Percent Ester Remaining in Solution ([9]; 0 minutes): 94.0%
- Concentration of Ester ([9]; 5 minutes): 0.000116 mol/L
- Percent Ester Remaining in Solution ([9]; 5 minutes): 82.9%
- Concentration of Ester ([9]; 9 minutes): 0.000103 mol/L
- Percent Ester Remaining in Solution ([9]; 9 minutes): 78.3%
- Concentration of Ester ([9]; 14 minutes): 0.000111 mol/L
- Percent Ester Remaining in Solution ([9]; 14 minutes): 74.5%
- ester reacted ([9]; 15 minutes): 0.0026 mol/L
- ε-amino groups of BSA substituted ([9]; 15 minutes, of 59 ε-amino groups): 25.9%
- Concentration of HNSA ([9]; With NaOH, 0 minutes): 0.000166 mol/L
- Concentration of HNSA ([9]; With NaOH, 5 minutes): 0.00014 mol/L
- Concentration of HNSA ([9]; With NaOH, 9 minutes): 0.000132 mol/L
- Concentration of HNSA ([9]; With NaOH, 14 minutes): 0.000149 mol/L
- Concentration of HNSA ([9]; Without NaOH, 0 minutes): 1.03e-05 mol/L
- Concentration of HNSA ([9]; Without NaOH, 5 minutes): 2.44e-05 mol/L
- Concentration of HNSA ([9]; Without NaOH, 9 minutes): 2.87e-05 mol/L
- Concentration of HNSA ([9]; Without NaOH, 14 minutes): 3.77e-05 mol/L
- reaction rate ([9]; over a 15 minute period): essentially linear

Compound: CN(C)c1cccc2c(S(=O)(=O)NCCCCCC(=O)Oc3ccc(S(=O)(=O)O)cc3[N+](=O)[O-])cccc12 [dansyl-sac-HNSA]
- increase in intensity over unlabeled cells [10]: 720 times

- physical properties relative to mal-sac HNSA ester [1]: essentially the same physical properties
Compound: O=C1N[C@H]2[C@H](CS[C@H]2CCCCC(=O)Oc2ccc(S(=O)(=O)O)cc2[N+](=O)[O-])N1 [biotin-HNSA]
- increase in fluorescence of treated cells [11]: much larger increase in fluorescence
- amino groups of the polylysine polypeptide reacted ([12]; 7 minutes): 28%
- reaction rate ([12]; over a 5 minute period, pH 7.4): essentially linear

Compound: O=C(CNC(=O)OCc1ccccc1)Oc1ccc(S(=O)(=O)O)cc1[N+](=O)[O-] [Z-gly-HNSA, N-benzyloxycarbonyl-gly-HNSA]
- rate of aminolysis by glycine relative to hydrolysis rate [13]: considerably higher than its hydrolysis rate

Compound: O=C(CCCCCNc1ccc([N+](=O)[O-])cc1[N+](=O)[O-])Oc1ccc(S(=O)(=O)O)cc1[N+](=O)[O-] [N-2,4-dinitrophenyl-6-aminocaproic acid ester of HNSA]
- efficiency in conjugating to bovine serum albumin [14]: more efficient

Compound: O=C(CCSSc1ccccn1)ON1C(=O)CCC1=O [SPDP, N-succinimidyl-3-(2-pyridyldithio)propionate]
- water solubility [15]: lack of water solubility

- physical properties relative to mal-sac HNSA ester [1]: essentially the same properties
Compound: O=C(CCSSc1ccccn1)Oc1ccc(S(=O)(=O)O)cc1[N+](=O)[O-] [3-(2-pyridyldithio)propionyl-HNSA, 3-(2-pyridyldithio)propionyl-HNSA ester]

Compound: mal-sac-BSA: product of the first reaction of mal-sac-HNSA ester with bovine serum albumin
- mal-sac groups per molecule ([9]; 15 minutes): 16 mal-sac groups per molecule

From US4943636A, “Certain pyridyl-di-sulfide-alkylenecarbonxylate-ortho-nitro-phenylsulfonic acid esters useful for coupling biological materials” (Cetus Corporation, priority 1987, dated 1990)
